The target in assay [1] is T1, M-phase inducer phosphatase 2 (Homo sapiens) (UniProt P30305).
T1 sequence (whole entry): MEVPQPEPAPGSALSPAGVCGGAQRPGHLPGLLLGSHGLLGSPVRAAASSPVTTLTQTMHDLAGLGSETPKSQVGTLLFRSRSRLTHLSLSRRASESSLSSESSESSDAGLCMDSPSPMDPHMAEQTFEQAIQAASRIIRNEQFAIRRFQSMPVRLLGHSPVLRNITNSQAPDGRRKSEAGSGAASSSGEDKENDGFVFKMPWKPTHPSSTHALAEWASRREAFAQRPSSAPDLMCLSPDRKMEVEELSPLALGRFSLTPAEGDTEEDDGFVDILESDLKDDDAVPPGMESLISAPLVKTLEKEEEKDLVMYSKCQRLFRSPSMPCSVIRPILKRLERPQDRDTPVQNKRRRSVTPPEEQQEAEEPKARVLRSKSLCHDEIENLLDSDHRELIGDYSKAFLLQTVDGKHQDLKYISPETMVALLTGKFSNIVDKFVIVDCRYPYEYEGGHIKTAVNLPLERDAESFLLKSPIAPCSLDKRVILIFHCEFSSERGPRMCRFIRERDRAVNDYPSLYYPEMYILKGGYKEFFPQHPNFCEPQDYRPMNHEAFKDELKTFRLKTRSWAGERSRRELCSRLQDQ
Nature of the assay: Inhibition of human recombinant CDC25B expressed in Escherichia coli assessed as inhibition of phosphatase activity by measuring p-nitrophenyl phosphate at 6.7 microg/ml measured after 60 mins. The settings on record: dose 6.7 µg/ml.

Assay [2] has as its target T2, Tyrosine-protein phosphatase non-receptor type 2 (Homo sapiens) (UniProt P17706).
T2 sequence (whole entry): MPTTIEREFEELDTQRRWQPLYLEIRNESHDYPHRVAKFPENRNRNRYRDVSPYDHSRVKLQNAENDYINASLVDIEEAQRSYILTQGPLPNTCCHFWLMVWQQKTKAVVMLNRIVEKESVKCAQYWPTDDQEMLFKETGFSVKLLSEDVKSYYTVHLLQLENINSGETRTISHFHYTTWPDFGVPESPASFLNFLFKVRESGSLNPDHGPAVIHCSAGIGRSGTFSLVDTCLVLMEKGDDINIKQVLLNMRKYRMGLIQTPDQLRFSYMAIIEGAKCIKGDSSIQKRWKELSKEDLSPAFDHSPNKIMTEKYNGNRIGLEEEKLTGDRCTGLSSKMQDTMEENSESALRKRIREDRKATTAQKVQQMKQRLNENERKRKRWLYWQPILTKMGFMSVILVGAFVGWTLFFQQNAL
Nature of the assay: Inhibition of human recombinant TCPTP expressed in Escherichia coli assessed as inhibition of phosphatase activity by measuring p-nitrophenyl phosphate at 6.7 microg/ml measured after 60 mins. The settings on record: dose 6.7 µg/ml.

Assay [3] concerns the target Tyrosine-protein phosphatase non-receptor type 6 (Homo sapiens) (UniProt P29350). Put plainly: Inhibition of human recombinant SHP1 expressed in Escherichia coli assessed as inhibition of phosphatase activity by measuring p-nitrophenyl phosphate at 6.7 microg/ml measured after 60 mins. The settings on record: dose 6.7 µg/ml.
In assay [4] the target is T3, Receptor-type tyrosine-protein phosphatase C (Homo sapiens) (UniProt P08575).
T3 sequence (whole entry): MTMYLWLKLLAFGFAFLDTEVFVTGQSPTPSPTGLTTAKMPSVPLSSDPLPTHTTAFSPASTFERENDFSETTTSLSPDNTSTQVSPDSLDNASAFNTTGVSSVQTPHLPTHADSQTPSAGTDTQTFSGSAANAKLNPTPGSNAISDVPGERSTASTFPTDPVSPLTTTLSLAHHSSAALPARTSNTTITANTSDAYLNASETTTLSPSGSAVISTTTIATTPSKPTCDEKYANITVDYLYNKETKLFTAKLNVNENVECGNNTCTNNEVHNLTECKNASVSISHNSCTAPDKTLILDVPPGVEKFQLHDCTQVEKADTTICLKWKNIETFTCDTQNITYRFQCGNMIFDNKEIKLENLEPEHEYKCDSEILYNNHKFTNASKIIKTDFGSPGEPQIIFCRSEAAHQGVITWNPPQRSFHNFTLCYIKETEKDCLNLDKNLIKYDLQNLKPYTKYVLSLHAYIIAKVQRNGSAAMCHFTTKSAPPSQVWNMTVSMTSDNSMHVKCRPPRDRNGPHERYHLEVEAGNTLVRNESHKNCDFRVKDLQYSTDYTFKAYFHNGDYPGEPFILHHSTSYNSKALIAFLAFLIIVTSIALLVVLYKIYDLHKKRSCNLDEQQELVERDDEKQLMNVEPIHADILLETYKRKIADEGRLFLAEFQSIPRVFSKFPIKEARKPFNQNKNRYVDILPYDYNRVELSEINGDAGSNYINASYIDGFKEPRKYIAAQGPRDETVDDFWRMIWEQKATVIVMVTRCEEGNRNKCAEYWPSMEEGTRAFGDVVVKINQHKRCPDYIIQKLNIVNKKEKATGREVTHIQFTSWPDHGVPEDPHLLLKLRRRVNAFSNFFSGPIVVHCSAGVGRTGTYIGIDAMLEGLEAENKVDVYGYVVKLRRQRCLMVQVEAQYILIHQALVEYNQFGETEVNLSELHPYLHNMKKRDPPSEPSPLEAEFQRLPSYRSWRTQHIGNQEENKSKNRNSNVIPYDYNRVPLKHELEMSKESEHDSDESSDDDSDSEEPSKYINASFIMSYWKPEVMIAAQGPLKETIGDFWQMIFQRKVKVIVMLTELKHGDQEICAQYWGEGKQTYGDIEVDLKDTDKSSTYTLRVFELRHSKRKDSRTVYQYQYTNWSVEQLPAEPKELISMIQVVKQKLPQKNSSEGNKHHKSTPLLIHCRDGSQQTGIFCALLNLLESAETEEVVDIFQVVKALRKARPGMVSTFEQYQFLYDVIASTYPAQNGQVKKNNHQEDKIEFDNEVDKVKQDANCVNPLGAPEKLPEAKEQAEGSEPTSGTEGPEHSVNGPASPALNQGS
Nature of the assay: Inhibition of human recombinant CD45 expressed in Escherichia coli assessed as inhibition of phosphatase activity by measuring p-nitrophenyl phosphate at 6.7 microg/ml measured after 60 mins. The settings on record: dose 6.7 µg/ml.

A further assay concerns 3T3-L1. Nature of the assay: (§1) Reduction in intracellular triglyceride accumulation in mouse 3T3-L1 cells at 10 uM measured after 3 days. The assay is classed as functional. The note with it: time 3.0 day.
Assay [5] is described as follows: Reduction in intracellular triglyceride accumulation in mouse 3T3-L1 cells measured after 3 days. The class given is functional, cell-based. The settings on record: 3T3-L1, 72 h.
The target of assay [6] is T4, M-phase inducer phosphatase 2 (Homo sapiens, UniProt P30305).
T4 sequence (P30305 whole entry): T1 sequence (whole entry)
Put plainly: Inhibition of human recombinant CDC25B expressed in Escherichia coli assessed as inhibition of phosphatase activity by measuring p-nitrophenyl phosphate measured after 60 mins.

The nature of assay [7]: as §1. The assay is classed as functional. On the set-up: scale not given: the % may be the effect or the level left. The settings on record: time 3 day.

The source made the active and inactive calls. The rule behind the calls is not given here. Where only a bound is given, the exact number is not on record here.

Sequence of Tyrosine-protein phosphatase non-receptor type 6 (Homo sapiens) (P29350 whole entry): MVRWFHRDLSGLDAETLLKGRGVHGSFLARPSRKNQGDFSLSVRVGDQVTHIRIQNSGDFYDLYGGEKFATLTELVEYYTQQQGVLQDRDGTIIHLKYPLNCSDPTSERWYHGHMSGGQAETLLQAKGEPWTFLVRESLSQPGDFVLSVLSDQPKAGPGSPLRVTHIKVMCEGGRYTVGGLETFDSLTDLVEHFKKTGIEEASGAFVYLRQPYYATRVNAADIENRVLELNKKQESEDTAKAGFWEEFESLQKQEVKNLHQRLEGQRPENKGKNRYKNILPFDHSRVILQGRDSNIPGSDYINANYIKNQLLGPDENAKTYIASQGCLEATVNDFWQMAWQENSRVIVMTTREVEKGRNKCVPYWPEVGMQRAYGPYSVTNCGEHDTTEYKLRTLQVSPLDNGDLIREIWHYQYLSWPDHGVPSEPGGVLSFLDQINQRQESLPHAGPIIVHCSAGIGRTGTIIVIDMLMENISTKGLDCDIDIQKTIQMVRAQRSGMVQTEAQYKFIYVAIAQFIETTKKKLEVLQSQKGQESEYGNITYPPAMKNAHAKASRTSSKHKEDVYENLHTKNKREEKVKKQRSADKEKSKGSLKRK

A word on the inhibition: it is the relative decrease from the control value, in per cent. Turning to `COC(=O)CC1=C(C)[C@@H]2C[C@@]3(C)C(=O)O[C@H]4O[C@@H](C)[C@@]5(O)O[C@@H]([C@@H]6O[C@]16C(C)(C)O)[C@]2(C)[C@@]5(C(=O)OC)[C@H]43`, the inhibition in assay [1], in assay [2], in assay [3] and in assay [4] was below 60% throughout.
In the case of `COC(=O)[C@]12C3=C(C)O[C@@H]4OC(=O)[C@](C)(C[C@H]5C(C)=C6CC(=O)O[C@@]6(C(C)(C)O)[C@@H](C[C@@]51C)O3)[C@@H]42`, the inhibition in assay [1], in assay [2], in assay [3] and in assay [4] was below 60% throughout.
As usually defined, the IC50 is the concentration that inhibits the measured activity by half. As to `CC1=C2CC(=O)OC(C)(C)[C@]23O[C@@H]3[C@@H]2O[C@@]3(O)[C@@H](C)O[C@H]4OC(=O)[C@]5(C)C[C@H]1[C@]2(C)[C@@]31C(=O)O[C@@]415`, the inhibition in assay [1], in assay [2], in assay [3] and in assay [4] was below 60% each time. For the same compound, in the assay with 3T3-L1, the outcome was Active. In assay [5], it took 37 µM to reach half-maximal inhibition (IC50).
Consider `COC(=O)[C@@]12[C@@]3(C)[C@@H]4C=C5C(=CC(=O)OC5(C)C)[C@@](C)(O)[C@@H]3C[C@@]3(C)C(=O)O[C@@H](O[C@@H](C)[C@@]1(O)O4)[C@@]23O`, for which the inhibition result in assay [1] is “Active”. The inhibition in assay [2], in assay [3] and in assay [4] was below 60% in each case. Moreover, the IC50 in assay [6] was found to be 13 µM.
Consider `COC(=O)[C@]12C3=C(C)O[C@@H]4OC(=O)[C@](C)(C[C@H]5C(C)=C6CC(=O)O[C@@]6(C(C)(C)O)[C@H](O3)[C@H](O)[C@@]51C)[C@@H]42`, for which the inhibition in assay [1], in assay [2], in assay [3] and in assay [4] was below 60% throughout.
On to `COC(=O)CC1=C(C)[C@@H]2C[C@@]3(C)C(=O)O[C@H]4O[C@@H](C)[C@@]5(O)O[C@@H]([C@@H]6O[C@]16C(C)(C)O)[C@]2(C)[C@@]5(C(=O)OC)[C@]43O`, for which the inhibition in assay [1], in assay [2], in assay [3] and in assay [4] was below 60% throughout.
As to `CC1=C2CC(=O)OC(C)(C)C2=CC[C@@]2(C)[C@H]1C[C@@](C)(C(=O)O)[C@]13COC(=O)[C@@]12C(=O)[C@H](C)O3`, the inhibition in assay [1], in assay [2], in assay [3] and in assay [4] was below 60% throughout. This compound had an Activity in assay [7] below 60%.
Consider `COC(=O)[C@]12C(=O)[C@H](C)O[C@@H]3OC(=O)[C@](C)(C[C@H]4C(C)=C5CC(=O)OC(C)(C)C5=CC[C@@]41C)[C@@H]32` [BERKELEYACETAL A], for which the inhibition in assay [1], in assay [2], in assay [3] and in assay [4] was below 60% throughout. The compound also returned an Activity in assay [7] below 60%.
Regarding `COC(=O)[C@]12[C@@H]3[C@H]4OC(=O)[C@]3(C)C[C@H]3C(C)=C5CC(=O)OC(C)(C)[C@@]56O[C@H]6[C@H](O[C@]1(O)[C@H](C)O4)[C@@]32C`, the inhibition in assay [1], in assay [2], in assay [3] and in assay [4] was below 60% in each case.
Take `COC(=O)CC1=C(C)[C@H]2C[C@]3(C)C(=O)O[C@@H]4O[C@H](C)[C@]5(O)O[C@@H]([C@H]6O[C@@]16C(C)(C)O)[C@@]2(C)[C@@]51C(=O)O[C@@]413`: the inhibition in assay [1], in assay [2], in assay [3] and in assay [4] was below 60% in each case. Also, the outcome with 3T3-L1 was Active. This compound also had an IC50 in assay [5] of 29 µM.
With `COC(=O)[C@]12[C@@H]3[C@H]4OC(=O)[C@]3(C)CC3=C(C)C5=C(C[C@H](O[C@]1(O)[C@H](C)O4)[C@@]32C)C(C)(C)OC(=O)C5`, the inhibition in assay [1], in assay [2], in assay [3] and in assay [4] was below 60% in each case.
Regarding `COC(=O)[C@]12C(=O)[C@@](C)(O)C(=O)[C@](C)(C[C@H]3C(C)=C4CC(=O)OC(C)(C)C4=CC[C@@]31C)[C@]21CO1`, the inhibition in assay [1], in assay [2], in assay [3] and in assay [4] was below 60% throughout. In addition, the result with 3T3-L1 was Active. Moreover, the IC50 in assay [5] is 43 µM.
For the compound `COC(=O)[C@]12[C@@H]3[C@@H](O)O[C@@H](C)[C@@]14OC(=O)[C@]3(C)C[C@H]1C(C)=C3CC(=O)OC(C)(C)[C@@]35O[C@H]5[C@H](O4)[C@@]12C`, the inhibition in assay [1], in assay [2], in assay [3] and in assay [4] was below 60% in each case. In addition, in the assay on 3T3-L1, the outcome was Active. The IC50 in assay [5] was determined as 21 µM.

Source of the values: ChEMBL document CHEMBL4828768, “Talaromynoids A-I, Highly Oxygenated Meroterpenoids from the Marine-Derived Fungus Talaromyces purpureogenus SCSIO 41517 and Their Lipid Accumulation Inhibitory Activities” (J Nat Prod, 2021).
